Here are results for 29 compounds from patent publication US20230045421A1 (priority 2018, published 2023).

The test system of the assay is HBV rcDNA. Kind of assay: HepDE19 assay with bDNA quantitation of HBV rcDNA. The class given is cell-based, hepatitis B virus. In a few lines:
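HepDE19 cells (HepG2-derived, Tet-regulated HBV replication) were deprived of tetracycline and then exposed to compounds for 7 days at 37 °C in 0.5% DMSO, 8-point titration from 25 μM. rcDNA was quantified by bDNA and EC50/EC90 came from 4-parameter fits. CC50 was measured by CellTiter-Glo ATP content on replicate plates after 4 days.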

[1] abbreviates: HepDE19 assay, inhibition of formation of relaxed circular DNA (rcDNA), bDNA quantitation, read-out: DE-19bDNA EC50.
The mark [2] stands for this setting: Hepatitis B virus, HepDE19, read-out: DE-19bDNA EC50 (μM), HepDE19 assay, inhibition of formation of relaxed circular DNA (rcDNA), bDNA quantitation.
[3] abbreviates: HepDE19 assay, inhibition of formation of rcDNA, read-out: DE-19bDNA EC50.
[4] abbreviates: read-out: DE-19bDNA EC50, HepDE19 assay, inhibition of formation of relaxed circular DNA (rcDNA), bDNA quantitation.

Molecules are shown by their SMILES. Like-named read-outs stand apart in the source and are kept apart here.

In the case of `CC(c1c[nH]c(=O)c2cc(F)c(F)cc12)N(CCCO)C(=O)Nc1ccc(F)cc1` (single isomer, unassigned) [Compound 291, 1-(1-(6,7-Difluoro-1-oxo-1,2-dihydroisoquinolin-4-yl)ethyl)-3-(4-fluorophenyl)-1-(3-hydroxypropyl) urea], under setting [1], the EC50 was 4.6 µM.
With `[2H]C([2H])([2H])N(C(=O)Nc1ccc(F)c(Cl)c1)C(C)c1c[nH]c(=O)c2c(F)c(F)ccc12` (single isomer, unassigned) [Compound 473, 3-(3-Chloro-4-fluorophenyl)-1-(1-(7,8-difluoro-1-oxo-1,2-dihydroisoquinolin-4-yl)ethyl)-1-(methyl-d3)urea], under setting [2], the concentration giving a half-maximal response (EC50) is 0.01 µM.
Turning to `CC(c1cnc(OCc2nc[nH]n2)c2ccccc12)N(CCCO)C(=O)Nc1ccc(F)c(Cl)c1` (single isomer, unassigned) [Compound 260, 1-(1-(1-((1H-1,2,4-Triazol-3-yl)methoxy)isoquinolin-4-yl)ethyl)-3-(3-chloro-4-fluorophenyl)-1-(3-hydroxypropyl)urea], the EC50 under setting [3] stood at 0.019 µM.
`CC(c1cnc(OCc2ncn(C)n2)c2cc(F)c(F)cc12)N(C)C(=O)Nc1ccc(F)c(Cl)c1` (single isomer, unassigned) [Compound 346, 3-(3-Chloro-4-fluorophenyl)-1-(1-(6,7-difluoro-1-((1-methyl-1H-1,2,4-triazol-3-yl)methoxy)isoquinolin-4-yl)ethyl)-1-methylurea]: the EC50 under setting [1] is 0.67 µM.
Turning to `COc1ncc(C(C)N(CC2CC2)C(=O)Nc2ccc(F)c(Cl)c2)c2ccccc12` (single isomer, unassigned) [Compound 64, 3-(3-Chloro-4-fluorophenyl)-1-(cyclopropylmethyl)-1-(1-(1-methoxyisoquinolin-4-yl)ethyl)urea], under setting [3], the EC50 was found to be 0.12 µM.
In the case of `C[C@H](c1c[nH]c(=O)c2ccccc12)N(C)C(=O)Nc1ccc(Br)cc1` [Compound 294, (R)-3-(4-Bromophenyl)-1-methyl-1-(1-(1-oxo-1,2-dihydroisoquinolin-4-yl)ethyl)urea], the EC50 under setting [2] was found to be 0.87 µM.
Consider `CC(c1cn(C)c(=O)c2c(F)c(F)ccc12)N(C)C(=O)Nc1ccc(F)c(Cl)c1` (single isomer, unassigned) [Compound 333, 3-(3-Chloro-4-fluorophenyl)-1-(1-(7,8-difluoro-2-methyl-1-oxo-1,2-dihydroisoquinolin-4-yl)ethyl)-1-methylurea], for which, under setting [1], the 50% effective concentration (EC50) is 0.013 µM.
As to `CC(c1c[nH]c(=O)c2cc(F)c(F)cc12)N(C)C(=O)Nc1ccc(Cl)cc1` (single isomer, unassigned) [Compound 401, 3-(4-Chlorophenyl)-1-(1-(6,7-difluoro-1-oxo-1,2-dihydroisoquinolin-4-yl)ethyl)-1-methylurea], under setting [4], the EC50 came to 0.09 µM.
`CCn1cc(C(C)N(C)C(=O)Nc2ccc(F)c(Cl)c2)c2ccccc2c1=O` (single isomer, unassigned) [Compound 183, 3-(3-Chloro-4-fluorophenyl)-1-(1-(2-ethyl-1-oxo-1,2-dihydroisoquinolin-4-yl)ethyl)-1-methylurea]: the concentration giving a half-maximal response (EC50) under setting [3] was 18 µM.
The same measure, in the same setting: the value for `CC(c1c[nH]c(=O)c2ccccc12)N(CC1CC1)C(=O)Nc1ccc(F)c(Cl)c1` (single isomer, unassigned) [Compound 85, 3-(3-Chloro-4-fluorophenyl)-1-(cyclopropylmethyl)-1-(1-(1-oxo-1,2-dihydroisoquinolin-4-yl)ethyl)urea] was 0.46 µM.
Same read-out and setting: the value for `CC(c1c[nH]c(=O)c2ccccc12)N(CC1CCCCC1)C(=O)Nc1ccc(F)c(Cl)c1` (single isomer, unassigned) [Compound 194, 3-(3-Chloro-4-fluorophenyl)-1-(cyclohexylmethyl)-1-(1-(1-oxo-1,2-dihydroisoquinolin-4-yl)ethyl)urea] was 0.95 µM; that for `CC(c1c[nH]c(=O)c2ccccc12)N(CC1COC(C)(C)OC1)C(=O)Nc1ccc(F)c(Cl)c1` (single isomer, unassigned) [Compound 273, 3-(3-Chloro-4-fluorophenyl)-1-((2,2-dimethyl-1,3-dioxan-5-yl)methyl)-1-(1-(1-oxo-1,2-dihydroisoquinolin-4-yl)ethyl)urea] was 0.17 µM.
Consider `CC(NC(=O)Nc1ccc(F)c(C#N)c1)c1c[nH]c(=O)c2cc(F)c(F)cc12` (centres unmarked) [Compound 495, 1-(3-Cyano-4-fluorophenyl)-3-(1-(6,7-difluoro-1-oxo-1,2-dihydroisoquinolin-4-yl)ethyl)urea], for which the EC50 under setting [2] worked out at 0.33 µM.
As to `CC(c1c[nH]c(=O)c2c(F)c(F)ccc12)N(CCS(N)(=O)=O)C(=O)Nc1ccc(F)c(Cl)c1` (single isomer, unassigned) [Compound 392, 2-(3-(3-Chloro-4-fluorophenyl)-1-(1-(7,8-difluoro-1-oxo-1,2-dihydroisoquinolin-4-yl)ethyl)ureido) ethane-1-sulfonamide], the EC50 under setting [1] was found to be 0.026 µM.
The same measure, in the same setting: the value for `CC(c1c[nH]c(=O)c2cc(F)c(F)cc12)N(C)C(=O)Nc1ccc(F)c(C#N)c1` (single isomer, unassigned) [Compound 429, 3-(3-Cyano-4-fluorophenyl)-1-(1-(6,7-difluoro-1-oxo-1,2-dihydroisoquinolin-4-yl)ethyl)-1-methylurea] was 0.01 µM; that for `CC(c1c[nH]c(=O)c2cc(F)c(F)cc12)N(C)C(=O)Nc1ccc(F)cc1` (single isomer, unassigned) [Compound 285, 1-(1-(6,7-Difluoro-1-oxo-1,2-dihydroisoquinolin-4-yl)ethyl)-3-(4-fluorophenyl)-1-methylurea] was 4.3 µM.
Consider `CC(c1c[nH]c(=O)c2ccccc12)N(CC[C@@H](C)O)C(=O)Nc1ccc(F)c(Cl)c1` (single isomer, unassigned) [Compound 212], for which the EC50 under setting [3] came to 0.02 µM.
For the compound `CC(c1c[nH]c(=O)c2c(F)c(F)ccc12)N(C)C(=O)NCc1ccc(F)c(Cl)c1` (single isomer, unassigned) [Compound 496, 3-(3-Chloro-4-fluorobenzyl)-1-(1-(7,8-difluoro-1-oxo-1,2-dihydroisoquinolin-4-yl)ethyl)-1-methylurea], under setting [1], the concentration giving a half-maximal response (EC50) amounted to 7.7 µM.
For `CC(c1c[nH]c(=O)c2ccc(Cl)cc12)N(C)C(=O)Nc1ccc(F)c(Cl)c1` (single isomer, unassigned) [Compound 172, 1-(1-(6-Chloro-1-oxo-1,2-dihydroisoquinolin-4-yl)ethyl)-3-(3-chloro-4-fluorophenyl)-1-methylurea], the EC50 under setting [3] came to 0.12 µM.
Regarding `CC(c1c[nH]c(=O)c2c(F)c(F)ccc12)N(CCS(N)(=O)=O)C(=O)Nc1ccc(F)c(Cl)c1` (single isomer, unassigned) [Compound 391, 2-(3-(3-Chloro-4-fluorophenyl)-1-(1-(7,8-difluoro-1-oxo-1,2-dihydroisoquinolin-4-yl)ethyl)ureido) ethane-1-sulfonamide], the EC50 under setting [1] worked out at 2.9 µM.
Turning to `COc1ncc(C(CCO)NC(=O)Nc2ccc(F)c(Cl)c2)c2ccccc12` (single isomer, unassigned) [Compound 77, 1-(3-Chloro-4-fluorophenyl)-3-(3-hydroxy-1-(1-methoxyisoquinolin-4-yl)propyl)urea], the EC50 under setting [3] was found to be 7.4 µM.
The same measure, in the same setting: the value for `CC(c1c[nH]c(=O)c2ccccc12)N(C[C@@H]1CCCO1)C(=O)Nc1ccc(F)c(Cl)c1` (single isomer, unassigned) [Compound 161] was 0.15 µM; that for `CCCCN(C(=O)Nc1ccc(F)c(Cl)c1)C(C)c1cnc(OC)c2ccccc12` (single isomer, unassigned) [Compound 62, 1-Butyl-3-(3-chloro-4-fluorophenyl)-1-(1-(1-methoxyisoquinolin-4-yl)ethyl)urea] was 7.1 µM.
Consider `CC(NC(=O)Nc1ccc(F)c(Cl)c1)c1c[nH]c(=O)c2cc(F)c(F)cc12` (centres unmarked) [Compound 480, 1-(3-Chloro-4-fluorophenyl)-3-(1-(6,7-difluoro-1-oxo-1,2-dihydroisoquinolin-4-yl)ethyl)urea], for which the half-maximal effective concentration (EC50) under setting [2] was 0.85 µM.
`CC(c1c[nH]c(=O)c2cnccc12)N(CCCO)C(=O)Nc1ccc(F)c(Cl)c1` (single isomer, unassigned) [Compound 251, 3-(3-Chloro-4-fluorophenyl)-1-(3-hydroxypropyl)-1-(1-(1-oxo-1,2-dihydro-2,7-naphthyridin-4-yl)ethyl)urea]: the EC50 under setting [3] amounted to 15 µM.
With `CC(c1c[nH]c(=O)c2c(F)c(F)ccc12)N(C)C(=O)Nc1ccccc1` (single isomer, unassigned) [Compound 437, 1-(1-(7,8-difluoro-1-oxo-1,2-dihydroisoquinolin-4-yl)ethyl)-1-methyl-3-phenylurea], the EC50 under setting [4] is 0.14 µM.
As for `CC(c1cnc(N)c2ccccc12)N(C)C(=O)Nc1ccc(F)c(Cl)c1` (single isomer, unassigned) [Compound 238, 1-(1-(1-Aminoisoquinolin-4-yl)ethyl)-3-(3-chloro-4-fluorophenyl)-1-methylurea], under setting [3], the EC50 worked out at 3.4 µM.
Take `CC(c1c[nH]c(=O)c2c(F)c(F)ccc12)N(C)C(=O)Nc1cc(Cl)c(F)c(Cl)c1` (single isomer, unassigned) [Compound 452, 3-(3,5-Dichloro-4-fluorophenyl)-1-(1-(7,8-difluoro-1-oxo-1,2-dihydroisoquinolin-4-yl)ethyl)-1-methylurea]: the concentration for a half-maximal effect (EC50) under setting [1] worked out at 0.047 µM.
As for `Cc1cc(NC(=O)N(CC(F)F)[C@H](C)c2c[nH]c(=O)c3ccccc23)ccc1F` [Compound 97, (R)-3-(3-Methyl-4-fluorophenyl)-1-(2,2-difluoroethyl)-1-(1-(1-oxo-1,2-dihydroisoquinolin-4-yl)ethyl)urea], for the setting “Hepatitis B virus, HepDE19, HepDE19 assay, inhibition of formation of rcDNA, read-out: DE-19bDNA EC50”, the EC50 is 0.11 µM.
